The EC50 is the concentration giving half of the maximal effect.

This test has as its system genotype A, "Long" strain RSV. Nature of the test: RSV-A in vitro cytoprotection assay in HEp-2 cells (ATPlite readout of cell viability). Format: cell-based, Human respiratory syncytial virus. Conditions: human respiratory syncytial virus, HEp-2, HEp-2 cells, genotype A “Long” strain RSV, cytoprotection; read-out: Human RSV-A (“Long” strain) EC50. Summed up: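 HEp-2 cells (8,000/well) given 2-fold compound dilutions in duplicate, then infected with RSV-A Long strain stock; viability read by ATPlite luminescence after 4 days. EC50 derived from cytoprotection; cytotoxicity measured on parallel uninfected plate.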
On the technique in general: ATP-based viability assays read luminescence as a measure of living cells.
In the case of `O=C(NC1CC1)c1cc2c(s1)-c1ccccc1N(C(=O)c1cccc(-c3cccnc3)n1)CC2` [Example 154], the EC50 is greater than 800 nM.

Regarding `Cc1cncc(-c2cccc(C(=O)N3CCc4cc(C(=O)NC5CC5)sc4-c4ccccc43)n2)c1` [Example 155], the EC50 was greater than 800 nM.

In the case of `Cc1ccncc1-c1cccc(C(=O)N2CCc3cc(C(=O)NC4CC4)sc3-c3ccccc32)n1` [Example 156], the EC50 is greater than 800 nM.

In the case of `O=C(NC1CC1)c1cc2c(s1)-c1ccccc1N(C(=O)c1cccc(-c3cncc(N4CCOCC4)c3)n1)CC2` [Example 157], the EC50 lay within 400 to 800 nM.

On to `O=C(NC1CC1)c1cc2c(s1)-c1ccccc1N(C(=O)c1cccc(-c3cnn(C4COC4)c3)n1)CC2` [Example 158], for which the EC50 was greater than 800 nM.

With `O=C(NC1CC1)c1cc2c(s1)-c1ccccc1N(C(=O)c1cccc(-c3cnn(C4CCOC4)c3)n1)CC2` (centres unmarked) [Example 159], the concentration for a half-maximal effect (EC50) was greater than 800 nM.

For the compound `COCCn1cc(-c2cccc(C(=O)N3CCc4cc(C(=O)NC5CC5)sc4-c4ccccc43)n2)cn1` [Example 160], the concentration for a half-maximal effect (EC50) was greater than 800 nM.

Take `O=C(NC1CC1)c1cc2c(s1)-c1ccccc1N(C(=O)c1cccc(-c3cnc(N4CCOCC4)s3)n1)CC2` [Example 161]: the EC50 lay within 400 to 800 nM.

For the compound `Cn1ccc(-c2cccc(C(=O)N3CCc4cc(C(=O)NC5CC5)sc4-c4ccccc43)n2)cc1=O` [Example 162], the EC50 was greater than 800 nM.

For `COc1ncc(-c2cccc(C(=O)N3CCc4cc(C(=O)NC5CC5)sc4-c4ccccc43)n2)cc1C` [Example 163], the EC50 is less than 400 nM.

Turning to `O=C(NC1CC1)c1cc2c(s1)-c1ccccc1N(C(=O)c1cccc(-c3cn[nH]c3C3CC3)n1)CC2` [Example 164], the EC50 was less than 400 nM.

On to `O=C(NC1CC1)c1cc2c(s1)-c1ccccc1N(C(=O)c1cccc(-c3cncn3C3CC3)n1)CC2` [Example 165], for which the EC50 is less than 400 nM.

Turning to `O=C(NC1CC1)c1cc2c(s1)-c1ccccc1N(C(=O)c1cccc(-c3ccnc(C4CC4)c3)n1)CC2` [Example 166], the EC50 is greater than 800 nM.

For the compound `O=C(NC1CC1)c1cc2c(s1)-c1ccccc1N(C(=O)c1cccc(-c3csc(N4CCOCC4)n3)n1)CC2` [Example 167], the EC50 was greater than 800 nM.

As to `COc1ccc(-c2cccc(C(=O)N3CCc4cc(C(=O)Nc5ccccc5)sc4-c4ccccc43)n2)cn1` [Example 168], the EC50 is greater than 800 nM.

Take `Cc1cccc(F)c1NC(=O)c1cc2c(s1)-c1ccc(F)cc1N(C(=O)c1cccc(-c3c[nH]c4ncc(F)cc34)n1)CC2` [Example 169]: the EC50 was less than 400 nM.

For `Cc1cccc(F)c1NC(=O)c1cc2c(s1)-c1ccc(F)cc1N(C(=O)c1cccc(-c3cn[nH]c3C3CC3)n1)CC2` [Example 170], the EC50 is less than 400 nM.

Consider `Cc1cccc(F)c1NC(=O)c1cc2c(s1)-c1c(F)cccc1N(C(=O)c1cccc(-c3cn[nH]c3C3CC3)n1)CC2` [Example 171], for which the EC50 was less than 400 nM.

For the compound `Cc1cccc(F)c1NC(=O)c1cc2c(s1)-c1ccc(F)cc1N(C(=O)c1cccc(-c3c[nH]c4ncccc34)n1)CC2` [Example 173], the EC50 is less than 400 nM.

`CCn1nccc1-c1cccc(C(=O)N2CCc3cc(C(=O)Nc4c(C)cccc4F)sc3-c3ccc(F)cc32)n1` [Example 174]: the EC50 was less than 400 nM.

Turning to `O=C(NC1CCC(F)(F)CC1)c1cc2c(s1)-c1ccccc1N(C(=O)c1cccc(-c3c[nH]nc3C3CC3)n1)CC2` [Example 175], the concentration for a half-maximal effect (EC50) was less than 400 nM.

Turning to `O=C(N[C@@H]1CCOC1)c1cc2c(s1)-c1ccccc1N(C(=O)c1cccc(-c3c[nH]nc3C3CC3)n1)CC2` [Example 176], the EC50 was less than 400 nM.

For the compound `O=C(N[C@H]1CCOC1)c1cc2c(s1)-c1ccccc1N(C(=O)c1cccc(-c3c[nH]nc3C3CC3)n1)CC2` [Example 177], the EC50 is less than 400 nM.

For the compound `O=C(NC1CCC1)c1cc2c(s1)-c1ccccc1N(C(=O)c1cccc(-c3c[nH]nc3C3CC3)n1)CC2` [Example 178], the EC50 was less than 400 nM.

As to `O=C(NC1CC(F)(F)C1)c1cc2c(s1)-c1ccccc1N(C(=O)c1cccc(-c3c[nH]nc3C3CC3)n1)CC2` [Example 179], the EC50 is less than 400 nM.

For the compound `O=C(NC1CCOCC1)c1cc2c(s1)-c1ccccc1N(C(=O)c1cccc(-c3c[nH]nc3C3CC3)n1)CC2` [Example 180], the EC50 is less than 400 nM.

With `O=C(NC1CS(=O)(=O)C1)c1cc2c(s1)-c1ccccc1N(C(=O)c1cccc(-c3c[nH]nc3C3CC3)n1)CC2` [Example 181], the EC50 is greater than 800 nM.

In the case of `O=C(NC1CNC1)c1cc2c(s1)-c1ccccc1N(C(=O)c1cccc(-c3c[nH]nc3C3CC3)n1)CC2` [Example 182], the EC50 was greater than 800 nM.

As for `CN1CC(NC(=O)c2cc3c(s2)-c2ccccc2N(C(=O)c2cccc(-c4c[nH]nc4C4CC4)n2)CC3)C1` [Example 183], the EC50 was greater than 800 nM.

For the compound `CS(=O)(=O)N1CC(NC(=O)c2cc3c(s2)-c2ccccc2N(C(=O)c2cccc(-c4c[nH]nc4C4CC4)n2)CC3)C1` [Example 184], the EC50 is greater than 800 nM.

For `CC(=O)N1CC(NC(=O)c2cc3c(s2)-c2ccccc2N(C(=O)c2cccc(-c4c[nH]nc4C4CC4)n2)CC3)C1` [Example 185], the half-maximal effective concentration (EC50) was greater than 800 nM.

As for `O=C(NC1CC1)c1cc2c(s1)-c1ccccc1N(C(=O)c1ccc3ccc(-c4ccncc4)cc3n1)CC2` [Example 186], the EC50 is greater than 800 nM.

`O=C(NC1CC1)c1cc2c(s1)-c1ccccc1N(C(=O)c1ccc3ccc(-c4ccncc4)nc3c1)CC2` [Example 187]: the EC50 is greater than 800 nM.

`Cc1cccc(F)c1NC(=O)c1cc2c(s1)-c1ccccc1N(C(=O)c1cccc(-c3ccc4ncccc4c3)n1)CC2` [Example 188]: the EC50 is less than 400 nM.

On to `Cc1cccc(F)c1NC(=O)c1cc2c(s1)-c1ccccc1N(C(=O)c1cccc(-c3ccc4nccc(Cl)c4c3)n1)CC2` [Example 189], for which the EC50 was greater than 800 nM.

For the compound `Cc1cccc(F)c1NC(=O)c1cc2c(s1)-c1ccccc1N(C(=O)c1cccc(-c3ccc4[nH]c(=O)ccc4c3)n1)CC2` [Example 190], the EC50 was less than 400 nM.

As to `Cc1cccc(F)c1NC(=O)c1cc2c(s1)-c1ccccc1N(C(=O)c1cccc(-c3ccc4ccc(=O)[nH]c4c3)n1)CC2` [Example 191], the EC50 was greater than 800 nM.

In the case of `Cc1cccc(F)c1NC(=O)c1cc2c(s1)-c1ccccc1N(C(=O)c1cccc(-c3ccc4c(c3)COC4)n1)CC2` [Example 192], the EC50 fell in the range of 400 to 800 nM.

On to `Cc1cccc(F)c1NC(=O)c1cc2c(s1)-c1ccccc1N(C(=O)c1cccc(-c3ccc4occc4c3)n1)CC2` [Example 193], for which the EC50 is greater than 800 nM.

Take `Cc1cccc(F)c1NC(=O)c1cc2c(s1)-c1ccccc1N(C(=O)c1cccc(-c3ccc4c(c3)CNC4=O)n1)CC2` [Example 194]: the EC50 lay within 400 to 800 nM.

In the case of `Cc1cccc(F)c1NC(=O)c1cc2c(s1)-c1ccccc1N(C(=O)c1cccc(-c3ccc4c(c3)CN(C)C4=O)n1)CC2` [Example 195], the EC50 is less than 400 nM.

For the compound `Cc1cccc(F)c1NC(=O)c1cc2c(s1)-c1ccccc1N(C(=O)c1cccc(-c3c[nH]nc3C3CC3)n1)CC2` [Example 196], the EC50 is less than 400 nM.

In the case of `Cc1cccc(F)c1NC(=O)c1cc2c(s1)-c1ccccc1N(C(=O)c1cccc(-c3cn(C)nc3C3CC3)n1)CC2` [Example 197], the EC50 was less than 400 nM.

Regarding `Cc1cccc(F)c1NC(=O)c1cc2c(s1)-c1ccccc1N(C(=O)c1cccc(-c3cnc(C)n3C3CC3)n1)CC2` [Example 198], the EC50 was less than 400 nM.

On to `Cc1cccc(F)c1NC(=O)c1cc2c(s1)-c1ccccc1N(C(=O)c1cccc(-c3cncn3C3CCC3)n1)CC2` [Example 199], for which the EC50 is less than 400 nM.

With `Cc1cccc(F)c1NC(=O)c1cc2c(s1)-c1ccccc1N(C(=O)c1cccc(-c3cnc(C4CC4)n3C3CC3)n1)CC2` [Example 200], the EC50 is less than 400 nM.

As to `Cc1cccc(F)c1NC(=O)c1cc2c(s1)-c1ccccc1N(C(=O)c1cccc(-c3cncn3C3(C)CC3)n1)CC2` [Example 201], the EC50 is greater than 800 nM.

For `Cc1cccc(F)c1NC(=O)c1cc2c(s1)-c1ccccc1N(C(=O)c1cccc(-c3cnc(C(F)(F)F)n3C3CC3)n1)CC2` [Example 202], the EC50 was less than 400 nM.

`Cc1cccc(F)c1NC(=O)c1cc2c(s1)-c1ccccc1N(C(=O)c1cccc(-c3cncn3-c3ccccc3)n1)CC2` [Example 203]: the EC50 was greater than 800 nM.

With `COc1ccc(-n2cncc2-c2cccc(C(=O)N3CCc4cc(C(=O)Nc5c(C)cccc5F)sc4-c4ccccc43)n2)cc1` [Example 204], the EC50 was greater than 800 nM.

Take `Cc1cccc(F)c1NC(=O)c1cc2c(s1)-c1ccccc1N(C(=O)c1cccc(-c3cncn3-c3ccccc3F)n1)CC2` [Example 205]: the EC50 is greater than 800 nM.

Turning to `Cc1cccc(F)c1NC(=O)c1cc2c(s1)-c1ccccc1N(C(=O)c1cccc(-c3c[nH]c4ccccc34)n1)CC2` [Example 207], the EC50 is less than 400 nM.

Turning to `Cc1cccc(F)c1NC(=O)c1cc2c(s1)-c1ccccc1N(C(=O)c1cccc(-c3cn(C)c4ccccc34)n1)CC2` [Example 208], the EC50 was greater than 800 nM.

On to `Cc1cccc(F)c1NC(=O)c1cc2c(s1)-c1ccccc1N(C(=O)c1cccc(-c3c(C)n[nH]c3C)n1)CC2` [Example 209], for which the EC50 was less than 400 nM.

As for `Cc1cccc(F)c1NC(=O)c1cc2c(s1)-c1ccccc1N(C(=O)c1cccc(-c3c[nH]nc3C(F)(F)F)n1)CC2` [Example 210], the EC50 was less than 400 nM.

Consider `Cc1cccc(F)c1NC(=O)c1cc2c(s1)-c1ccccc1N(C(=O)c1cccc(-c3c[nH]nc3N3CCOCC3)n1)CC2` [Example 211], for which the EC50 was greater than 800 nM.

Turning to `Cc1cccc(F)c1NC(=O)c1cc2c(s1)-c1ccccc1N(C(=O)c1cccc(-c3cn[nH]c3-c3ccccc3)n1)CC2` [Example 212], the EC50 is less than 400 nM.

As for `Cc1cccc(F)c1NC(=O)c1cc2c(s1)-c1ccccc1N(C(=O)c1cccc(-c3cn[nH]c3)n1)CC2` [Example 213], the EC50 is less than 400 nM.

Take `COC(=O)n1cc(-c2cccc(C(=O)N3CCc4cc(C(=O)Nc5c(C)cccc5F)sc4-c4ccccc43)n2)c(C2CC2)n1` [Example 214]: the EC50 is less than 400 nM.

(Values after patent publication US10759816B2, “Heterocyclic compounds as RSV inhibitors” (Enanta Pharmaceuticals, Inc., priority 2016, dated 2020).)
